Results from ChEMBL document CHEMBL1157174, “Electronically stabilized versions of the antimalarial acetal trioxanes artemether and artesunate” (Bioorg Med Chem, 2008).
Active and inactive are the calls of the source. No cut-off for these calls is given here.

Tested on: Plasmodium berghei
Assay: Antimalarial activity against Plasmodium berghei infected mice (Mus musculus) at 30 mg/kg peroral dose
Type: functional, organism-based
Design: dose 30 mg/kg

Question: With `C[C@@H]1CC[C@@H]2[C@]34OO[C@@](C)(CC[C@@H]13)O[C@H]4OC(O)[C@]2(C)F` (stereo partly specified) as the compound, how does the Activity read?
Answer: inactive

Question: `C[C@@H]1CC[C@@H]2[C@]34OO[C@@](C)(CC[C@@H]13)O[C@H]4O[C@H](O)[C@@]2(C)S(C)(=O)=O` was tested. Which Activity did it give?
Answer: inactive

Question: For `CO[C@H]1O[C@@H]2O[C@]3(C)CC[C@H]4[C@H](C)CC[C@@H]([C@@]1(C)F)[C@@]24OO3`, which Activity is on record?
Answer: inactive

Question: With `C[C@@H]1CC[C@@H]2[C@]34OO[C@@](C)(CC[C@@H]13)O[C@H]4O[C@@H](O)[C@]2(C)S(C)(=O)=O` as the compound, how does the Activity read?
Answer: inactive

Question: How did the Activity turn out when `C[C@@H]1CC[C@@H]2[C@]34OO[C@@](C)(CC[C@@H]13)O[C@H]4OC(=O)[C@@]2(C)S(C)(=O)=O` was run?
Answer: inactive

Question: `CCCCCCCCCCCCCCCCCC(=O)O[C@@H]1O[C@@H]2O[C@]3(C)CC[C@H]4[C@H](C)CC[C@H]([C@@]24OO3)[C@@]1(C)S(C)(=O)=O` was tested. Which Activity did it give?
Answer: inactive

Question: For `CCCCCc1ccc(C(=O)O[C@@H]2O[C@@H]3O[C@]4(C)CC[C@H]5[C@H](C)CC[C@H]([C@@]35OO4)[C@@]2(C)S(=O)(=O)c2ccccc2)cc1`, which Activity is on record?
Answer: inactive

Question: How did the Activity turn out when `C[C@@H]1CC[C@@H]2[C@]34OO[C@@](C)(CC[C@@H]13)O[C@H]4O[C@@H](O)[C@]2(C)S(=O)(=O)c1ccccc1` was run?
Answer: inactive

Question: With `CCCCCCCCCCc1ccc(C(=O)O[C@@H]2O[C@@H]3O[C@]4(C)CC[C@H]5[C@H](C)CC[C@H]([C@@]35OO4)[C@@]2(C)S(C)(=O)=O)cc1` as the compound, how does the Activity read?
Answer: inactive

Question: `CO[C@@H]1O[C@@H]2O[C@]3(C)CC[C@H]4[C@H](C)CC[C@@H]([C@@]1(C)F)[C@@]24OO3` was tested. Which Activity did it give?
Answer: inactive

Question: Which Activity does the source give for `C[C@@H]1CC[C@@H]2[C@]34OO[C@@](C)(CC[C@@H]13)O[C@H]4OC(=O)[C@]2(C)S(C)(=O)=O` here?
Answer: inactive
